Experimental data reported in patent US20260028552A1, “Cationic Surfactants with Improved pH Stability and Their Use” (Locus Solutions IPCo, LLC, priority 2022, published 2026).
“Also recorded” adds a separate entry of the source.

Legend:
[1] = base-catalyzed hydrolysis of the ester, lactam formation; listed as LAE; cited from earlier work
[2] = tested on: Staphylococcus aureus (G+); test: Microbial kill study (log reduction), Staphylococcus aureus; assay type: cell-based; settings: for Log Reduction S. aureus (G+) 100 ppm 0 min / Log Reduction S. aureus (G+) 100 ppm 2 min / Log Reduction S. aureus (G+) 100 ppm 5 min / Activity Reduction S. aureus (G+) 100 ppm 5 min: pH 7, 100 ppm; for Activity Reduction S. aureus (G+) 100 ppm 5 min: day 4 accelerated stability vs day 0
Method: (§1) Studies were conducted to determine the antimicrobial capabilities of cationic arginine derivatized surfactants produced according to embodiments of the subject invention.
(§2) The test organisms were a mixture of Gram-negative and Gram-positive organisms, which served to validate the breadth of the spectrum of control and the utility of the technology for common pathogens of public health concern: Pseudomonas aeruginosa (Gram-negative), Staphylococcus aureus (Gram-positive) and Salmonella entericus (Gram-negative).
(§3) Test bacteria were grown at 32° C. for 24-48 hours in tryptic soy broth, then plated at a starting concentration of 10^7. PBS was used for dilution to achieve the desired cell concentration.
(§4) A stock solution of each antimicrobial treatment was created in water, which was then used to create each desired dilution for treatment: 25, 50, 200, 400, 500, 750, 1,000, 1,500, 2,000 and 4,000 ppm, in an appropriate volume of buffer. Buffers included 100 mM of citric acid, ammonium HCL, PBS or sodium bicarbonate.
(§5) The created cell dilution of 10^7 CFU/mL was mixed with either 100 uL to 900 uL of antimicrobial at the appropriate PPM, or 1-9 mL of antimicrobial at the appropriate PPM. The final concentration of the organism was […] once mixed with the antimicrobial.
(§6) The moment the organism was added to the antimicrobial, the timer was started for the desired time period (0, 2, 5, 6 or 10 min). At the end of the timer, the antimicrobial was neutralized, and dilutions were then plated onto TSA plates and incubated for 24-48 hours at 32° C.
(§7) The negative control comprised 0.1 mL from the organism stock plated onto a TSA plate. For the positive control a serial dilution was set up with a starting concentration of 400 PPM quaternary ammonium compound (QAC) and organism. Dilutions were plated at 10^2, 10^3 and 10^4 CFU/mL.
(§8) After 24 to 48 hours of incubation, plates were removed from the incubator and colony numbers were counted.
(§9) The below scale is commonly used in determining a compound's efficacy, where a greater than or equal to 6-fold logarithmic (≥6 log) reduction in less than 10 minutes is needed for disinfection.
(§10) Table 3 summarizes surface tension reduction at 1000 ppm and log reduction of S. aureus and S. enterica at 0 and 10 min. (200 ppm) for four categories of cationic amino alcohol surfactants according to embodiments of the subject invention.
(§11) Tables 4-5 summarize the pH stability over 4 days for a C12 cationic amino alcohol surfactant according to embodiments of the subject invention, LRO (RO), compared with LAE (RE), where LRO was produced through the coupling of a lauroyl chloride substrate and arginine ethyl ester. Log reductions were measured according to the procedures described above in Example 2.

Salmonella enterica (G−) = test: Microbial kill study (log reduction), Salmonella enterica; assay type: cell-based; settings: for Log Reduction S. enterica (G−) 100 ppm 0 min / Log Reduction S. enterica (G−) 100 ppm 2 min / Log Reduction S. enterica (G−) 100 ppm 5 min / Activity Reduction S. enterica (G−) 100 ppm 5 min: pH 7, 100 ppm; for Activity Reduction S. enterica (G−) 100 ppm 5 min: day 4 accelerated stability vs day 0
Method: as §1, §2, §3, §4, §5, §6, §7, §8, §9, §10, §11

[3] = tested on: Pseudomonas aeruginosa (G−); test: Microbial kill study (log reduction), Pseudomonas aeruginosa; assay type: cell-based; settings: P. aeruginosa
Method: as §1, §2, §3, §4
The created cell dilution of 10^7 CFU/mL was mixed with either 100 uL to 900 uL of antimicrobial at the appropriate PPM, or 1-9 mL of antimicrobial at the appropriate PPM. The final concentration of the organism was […] once mixed with the antimicrobial. […]
After 24 to 48 hours of incubation, plates were removed from the incubator and colony numbers were counted. […]

[4] = Surface tension reduction at 1000 ppm; assay type: physicochemical
Method: Table 2 summarizes surface tension reduction at 1000 ppm and log reduction of P. aeruginosa at 0 and 10 min. (200 ppm) for two C12 cationic amino alcohol surfactants according to embodiments of the subject invention, LRO (R) and LKO (K), where LRO was produced through the coupling of a lauroyl chloride substrate and arginine ethyl ester and LKO was produced through the coupling of a lauroyl chloride substrate and lysine ethyl ester.
as §10

Compound	Log Reduction S. aureus (G+) 100 ppm 0 min ([2]; Day 0 Stability) [log]	Log Reduction S. aureus (G+) 100 ppm 2 min ([2]; Day 0 Stability) [log]	Log Reduction S. aureus (G+) 100 ppm 5 min ([2]; Day 0 Stability) [log]	Log Reduction S. aureus (G+) 100 ppm 0 min ([2]; Day 4 Accelerated Stability) [log]	Log Reduction S. aureus (G+) 100 ppm 2 min ([2]; Day 4 Accelerated Stability) [log]	Log Reduction S. aureus (G+) 100 ppm 5 min ([2]; Day 4 Accelerated Stability) [log]	Activity Reduction S. aureus (G+) 100 ppm 5 min [2] [%]	Log Reduction S. enterica (G−) 100 ppm 0 min (Salmonella enterica (G−); Day 0 Stability) [log]	Log Reduction S. enterica (G−) 100 ppm 2 min (Salmonella enterica (G−); Day 0 Stability) [log]	Log Reduction S. enterica (G−) 100 ppm 5 min (Salmonella enterica (G−); Day 0 Stability) [log]	Log Reduction S. enterica (G−) 100 ppm 0 min (Salmonella enterica (G−); Day 4 Accelerated Stability) [log]	Log Reduction S. enterica (G−) 100 ppm 2 min (Salmonella enterica (G−); Day 4 Accelerated Stability) [log]	Log Reduction S. enterica (G−) 100 ppm 5 min (Salmonella enterica (G−); Day 4 Accelerated Stability) [log]	Activity Reduction S. enterica (G−) 100 ppm 5 min (Salmonella enterica (G−)) [%]	Surface Tension 1000 ppm ([4]; 1000 ppm (Table 3)) [mN/m]	Log Reduction S. aureus (G+) 200 ppm 0 min [2] [log]	Log Reduction S. aureus (G+) 200 ppm 10 min [2] [log]	Log Reduction S. enterica (G−) 200 ppm 0 min (Salmonella enterica (G−)) [log]	Log Reduction S. enterica (G−) 200 ppm 10 min (Salmonella enterica (G−)) [log]	other results
CCCCCCCCCCCC(=O)N[C@@H](CCCN=C(N)N)C(=O)OCC [C12 R E, Ethyl lauroyl arginate, reference compound]	0.00	6.53	6.53	0.00	0.93	1.14	82.54	0.00	6.42	6.42	0.00	0.00	0.00	100.00	–	–	–	–	–	pH stability [1]: decreases at higher pH; also recorded: unstable at pH 7 or above
CCCCCCCCCCCC(=O)NC(CO)CCCNC(=N)N (stereo not drawn) [C12 R O, lauryl argininol alcohol]	0.00	2.17	6.53	0.00	0.76	6.53	0.00	0.00	1.32	2.36	0.00	0.00	0.79	66.53	23.75	0.00	6.24	0.00	6.20	Log Reduction 200 ppm 0 min ([3]; 0 min): 1.85 log; Log Reduction 200 ppm 10 min ([3]; 10 min): 6.25 log; Surface Tension 1000 ppm ([4]; 1000 ppm (Table 2)): 23.75 mN/m
linear sophorolipid argininol amide [SLP R O]	–	–	–	–	–	–	–	–	–	–	–	–	–	–	41.89	0.00	2.23	0.00	0.00	–
